Data on seven molecules can be found in patent US10770169B2, “Method of providing a treatment to a subject based on a dynamic pathway map” (THE REGENTS OF THE UNIVERSITY OF CALIFORNIA, priority 2010, dated 2020).

Test [1] has as its system luminal, basal, claudin-low and ERBB2AMP breast cancer cell lines. As to the kind of experiment: Associations of clinically relevant subtypes and response (non-parametric ANOVA or t-test on GI50 ranks). The format is cell-based, human. The conditions noted are these: for Subtype specificity: Table 6, most sensitive subtype, FDR p<0.20; for subtype-specific response (sensitivity by transcriptional subtype): GI50 across subtypes. The source says:
A central premise of this study is that associations between responses and molecular subtypes observed in preclinical cell line analyses will be recapitulated in the clinic in instances where the predictive molecular features in the cell lines are mirrored in human tumors. We established response-subtype associations by using non-parametric ANOVAs to compare […] values across transcriptional and genomics subtypes.
Differences between GI50s of the groups were compared with a non-parametric ANOVA or t-test, as appropriate, on the ranks. We combined the p-values for the three sets of tests and used false discovery rate (FDR) to correct for multiple testing. For the three-sample test, we performed a post-hoc analysis on the compounds with a significant class effect by comparing each group to all others to determine which group was most sensitive. The p-values for the post-hoc test were FDR-corrected together. In all cases, FDR p<0.20 was deemed significant. […] Analyses were performed in R.

Test [2] deals with panel of 55 breast cancer cell lines. As to the kind of experiment: Cell growth inhibition assay (Cell Titer Glo, 72 h, 9 doses; GI50, TGI, LC50). The format is cell-based, human. Particulars: value is the negative log10 of mol/L.

SMILES strings stand for the structures. “Also recorded” adds a separate entry of the source.

With `O=C(CCCCCCC(=O)Nc1ccccc1)NO` [Vorinostat], in test [1], the Subtype specificity result is on record as “Luminal”.
Still for that read-out and setting: with `O=C1NC(=O)/C(=C/c2ccc3nccc(-c4ccncc4)c3c2)S1` [GSK1059615] the entry was “Luminal/ERBB2AMP”.
Turning to `N.N.[Cl][Pt][Cl]` [Cisplatin], in test [1], the “subtype-specific response (sensitivity by transcriptional subtype)” value is listed as “preferential activity in basal and/or claudin-low cell lines; also recorded: basal cell lines are preferentially sensitive; also recorded: Basal breast cancer cell lines preferentially respond” and the Subtype specificity result is on record as “Basal”.
Take `COc1ncc(-c2ccc3nccc(-c4ccnnc4)c3c2)cc1NS(=O)(=O)c1ccc(F)cc1F` [GSK2126458]: the Subtype specificity result in test [1] is on record as “Luminal/ERBB2AMP”.
With `C[C@@H](Oc1cc(-n2cnc3ccc(CN4CCN(C)CC4)cc32)sc1C(N)=O)c1ccccc1C(F)(F)F` [GSK461364], in test [1], the “subtype-specific response (sensitivity by transcriptional subtype)” value is “more active against basal and claudin-low cell lines”; the Subtype specificity entry is listed as “Basal + Claudin-low”.
For the molecule `O=C1C(Cl)=C(NCCN2CCOCC2)C(=O)c2ncccc21` [NSC 663284], the GI50 worked out at 5.34 in test [2] (600MPE cell line, censored GI50 values); 5.81 in test [2] (AU565 cell line, censored GI50 values); 5.48 in test [2] (BT20 cell line, censored GI50 values); 5.56 in test [2] (BT474 cell line, censored GI50 values); 6.02 in test [2] (BT483 cell line, censored GI50 values); 5.58 in test [2] (CAMA1 cell line, censored GI50 values). For the same molecule, the GI50 in test [2] (HCC1143 cell line, censored GI50 values) is 5.70; in test [2] (HCC1187 cell line, censored GI50 values), 5.68; in test [2] (HCC1395 cell line, censored GI50 values) it was 6.16; in test [2] (HCC1419 cell line, censored GI50 values), 5.72; in test [2] (HCC1428 cell line, censored GI50 values) it was 5.59; in test [2] (HCC1500 cell line, censored GI50 values), 5.42. In addition, the GI50 amounted to 6.07 in test [2] (HCC1937 cell line, censored GI50 values); 5.22 in test [2] (HCC1954 cell line, censored GI50 values); 5.34 in test [2] (cell line 600MPE); 5.81 in test [2] (cell line AU565); 5.48 in test [2] (cell line BT20); 5.56 in test [2] (cell line BT474). Further, the GI50 was 6.02 in test [2] (cell line BT483); 5.58 in test [2] (cell line CAMA1); 5.64 in test [2] (cell line HCC38); 5.51 in test [2] (cell line HCC70); 5.70 in test [2] (cell line HCC1143); 5.68 in test [2] (cell line HCC1187). Moreover, the GI50 in test [2] (cell line HCC1395) came to 6.16; in test [2] (cell line HCC1419) it was 5.72; in test [2] (cell line HCC1428) it was 5.59; in test [2] (cell line HCC1500), 5.42; in test [2] (cell line HCC1937) it was 6.07; in test [2] (cell line HCC1954) it was 5.22. The GI50 in test [2] (cell line HCC2185) is on record as 5.96; in test [2] (cell line HCC3153), 5.73; in test [2] (cell line LY2), 6.27; in test [2] (cell line MCF7), 5.43; in test [2] (cell line MDAMB134V) it was 5.24; in test [2] (cell line MDAMB175V), 5.22. Besides, the GI50 in test [2] (cell line MDAMB361) amounted to 5.14; in test [2] (cell line MDAMB415) it was 5.59; in test [2] (cell line MDAMB453) it was 5.26; in test [2] (cell line MDAMB468), 5.19; in test [2] (cell line SKBR3), 5.86; in test [2] (cell line SUM52PE), 5.61. In addition, the GI50 in test [2] (cell line SUM149PT) is on record as 5.74; in test [2] (cell line SUM159PT) it was 5.64; in test [2] (cell line SUM185PE) it was 6.50; in test [2] (cell line SUM225CWN) it was 5.66; in test [2] (cell line SUM1315MO) it was 6.00; in test [2] (cell line T47D) it was 5.19. For the same molecule, the GI50 stood at 5.43 in test [2] (cell line UACC812), 5.26 in test [2] (cell line ZR75B) and 5.73 in test [2] (cell line ZR751).
`COc1cc2c(Nc3ccc(NC(=O)c4ccccc4)cc3)ncnc2cc1OCCCN1CCOCC1` [ZM447439]: the GI50 in test [2] (cell line AU565, censored GI50 values) came to 5.82; in test [2] (cell line BT20, censored GI50 values) it was 5.29; in test [2] (cell line BT474, censored GI50 values), 4.20; in test [2] (cell line BT483, censored GI50 values), 4.57; in test [2] (cell line CAMA1, censored GI50 values), 5.40; in test [2] (cell line HCC38, censored GI50 values) it was 6.24. The GI50 was determined as 6.01 in test [2] (cell line HCC70, censored GI50 values); 4.98 in test [2] (cell line HCC1143, censored GI50 values); 6.19 in test [2] (cell line HCC1187, censored GI50 values); 5.32 in test [2] (cell line HCC1419, censored GI50 values); 5.13 in test [2] (cell line HCC1428, censored GI50 values); 5.28 in test [2] (cell line HCC1500, censored GI50 values). The GI50 in test [2] (cell line HCC1937, censored GI50 values) turned out to be 5.23; in test [2] (cell line HCC2185, censored GI50 values), 5.92; in test [2] (cell line MDAMB134VI, censored GI50 values), 4.66; in test [2] (cell line MDAMB175VII, censored GI50 values), 4.28; in test [2] (cell line MDAMB361, censored GI50 values) it was 5.53; in test [2] (cell line MDAMB436, censored GI50 values), 5.33. Besides, the GI50 in test [2] (cell line MDAMB468, censored GI50 values) was found to be 6.18; in test [2] (cell line SKBR3, censored GI50 values) it was 4.77; in test [2] (cell line SUM52PE, censored GI50 values), 5.40; in test [2] (cell line SUM185PE, censored GI50 values), 4.50; in test [2] (cell line T47D, censored GI50 values), 4.94; in test [2] (cell line UACC812, censored GI50 values), 4.88. Further, the GI50 is on record as 5.00 in test [2] (cell line ZR75B, censored GI50 values) and 5.46 in test [2] (cell line ZR751, censored GI50 values).
